Consider ten compounds from PubChem BioAssay (NCI).

Structures are written as SMILES. Several values for one entry are separate records, joined by “and”; a condition that tells them apart may be missing. Identical values can stand only once.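 Step 1: Grow cells in 96-well plates. Step 2: Expose to compound for 48 hours at 5 concentrations. Step 3: Interpolate endpoints linearly; if unreached, use highest concentration. GI50: concentration for 50% inhibition of growth. The concentration for full growth arrest is given as TGI.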

Holding throughout (assay): NCI-60 cell line screen, 48 h
In assay [1] the test system is SF-295 CNS.
The subject of assay [2] is A498 renal.
For assay [3], the system named is HCT-116 colon.
Assay [4] deals with UACC-257 melanoma.
Assay [5] relates to SF-539 CNS.
For assay [6], the system named is HT29 colon.
In assay [7] the test system is OVCAR-8 ovarian.
For assay [8], the system named is NCI-H460 lung.
For assay [9], the system named is NCI-H226 lung.
Assay [10] concerns SF-268 CNS.

As for `NC(=NC1C2CC3CC(C2)CC1C3)Nc1ccc(I)cc1` (centres undefined), the GI50 in assay [1] was 2.51 µM; in [2] it was 2.47 µM; in [3], 3.11 µM; in [4], 2.16 µM; in [5], 4.16 µM; in [6] it was 3.1 µM. Besides, the GI50 in [7] was 6.61 µM; in assay [8] it was 3.66 µM; in assay [9], 5.41 µM; in [10], 4.52 µM. Further, the TGI in [1] was found to be 6.75 µM; in assay [2], 6.77 µM; in assay [3] it was 10.4 µM; in assay [4], 5.21 µM; in [5] it was 15.5 µM; in [6], 10.8 µM. For the same compound, the TGI in assay [7] stood at 23.4 µM; in assay [8] it was 13 µM; in [9], 22.2 µM; in [10] it was 17.8 µM.

For the compound `CCN(CC)c1ccc(/C=N\NC(=O)c2cccc(Nc3ccnc(C(F)(F)F)c3)c2)c(O)c1`, the GI50 was 0.312 µM in assay [1]; 0.541 µM in [2]; 0.121 µM in assay [3]; 0.373 µM in assay [4]; 0.279 µM in [5]; 0.301 µM in assay [6]. In addition, the GI50 in [7] is 0.342 µM; in assay [8] it was 0.199 µM; in assay [9], 0.311 µM; in assay [10], 0.083 µM. Besides, the TGI in assay [1] is 2.47 µM; in assay [2], 17 µM; in assay [3] it was 31 µM; in assay [5], 1.45 µM; in assay [6], 7.26 µM; in assay [7], over 100 µM. Besides, the TGI in [8] was 2.24 µM; in [9], 3.48 µM; in assay [10], over 27.3 µM.

In the case of `C[Si](C)(C)[C@@]1([Se]c2ccccc2)CC[C@@H]1C(=O)c1ccccc1`, the TGI in [1], in assay [2], in [3], in assay [4], in assay [5] and in [6] was over 100 µM in each case. In addition, the TGI in [7], in assay [8], in assay [9] and in [10] was over 100 µM throughout.

As to `OCC1CC2CC1C1(C2)OCCO1` (centres undefined), the TGI in [1], in [2], in [3], in [4], in [5] and in assay [6] was over 100 µM throughout. The TGI in [7], in assay [8], in [9] and in assay [10] was over 100 µM each time.

As to `Fc1ccc(-c2c(-c3ccncc3)n(CCN3CCOCC3)c3cccnc23)cc1`, the GI50 in assay [1], in assay [2], in assay [3], in assay [4], in [5] and in [6] was over 25 µM throughout. In addition, the GI50 in assay [7], in assay [8], in assay [9] and in assay [10] was over 25 µM each time. Further, the TGI in [1], in [2], in [3], in assay [4], in assay [5] and in assay [6] was over 25 µM each time. Also, the TGI in [7], in assay [8], in assay [9] and in assay [10] was over 25 µM throughout.

Regarding `S=C1OC2C3C4CC5C3C(O1)C1C5C4C21` (centres undefined), the TGI in [1], in [2], in assay [3], in [4], in assay [5] and in [6] was over 100 µM throughout. Also, the TGI in assay [7], in [8], in [9] and in assay [10] was over 100 µM throughout.

Consider `O=C1CCCc2c(O)ccc(O)c21`, for which the TGI in [1], in [2], in assay [3], in assay [4], in assay [5] and in [6] was over 100 µM throughout. Moreover, the TGI in [7], in assay [8], in assay [9] and in [10] was over 100 µM throughout.

As to `Cc1ccc(S(=O)(=O)ON=C2CC(c3ccccc3)N(C)C(c3ccccc3)C2)cc1` (centres undefined), the TGI was 52.4 µM and 65.5 µM in assay [1]; 70.8 µM in assay [2]; 29.6 µM and 27.5 µM in assay [3]; 52.2 µM and 58 µM in [4]; 36 µM in assay [5]; 54.7 µM and 57.3 µM in assay [6]. In addition, the TGI is 35.6 µM and 36.5 µM in assay [7]; 44.1 µM and 52.7 µM in assay [8]; 70.1 µM and 64 µM in assay [9]; 51.8 µM and 51.1 µM in assay [10].

In the case of `N#CCc1nc2c(s1)C(=O)c1ccccc1C2=O`, the TGI in [1] turned out to be 34.5 µM; in assay [2], 59.1 µM; in assay [3], 27.6 µM; in assay [4], 28.5 µM; in [5], 28 µM; in assay [6] it was 46.5 µM. Further, the TGI came to 22.6 µM in assay [7], 47.6 µM in assay [8], 37.8 µM in [9] and 32.2 µM in assay [10].

For `COC(=N)/C(=C1\OC(N)=C(c2ccc(Cl)cc2)C1=O)c1ccc(Cl)cc1`, the TGI in [1], in assay [2], in assay [3], in assay [4], in assay [5] and in [6] was over 100 µM throughout. Moreover, the TGI in [7], in [8], in [9] and in assay [10] was over 100 µM throughout.
